Results on three molecules are retold here after patent US12486271B2, “Solid forms of a toll-like receptor modulator” (GILEAD SCIENCES, INC., priority 2014, dated 2025).

SMILES strings stand for the structures.

Data set [1] can be described thus: Variable temperature XRD (VT XRD) experiment: form stability on cooling. The class given is physicochemical. Particulars: cooled to 25° C. after generation by heating. From the text:
X-ray Powder Diffraction (XRPD). The Rigaku Smart-Lab® X-ray diffraction system was configured for reflection BraggBrentano geometry using a line source X-ray beam. The x-ray source is a Cu Long Fine Focus tube that was operated at 40 kV and 44 mA. That source provides an incident beam profile at the sample that changes from a narrow line at high angles to a broad rectangle at low angles. Beam conditioning slits were used on the line X-ray source to ensure that the maximum beam size is less than 10 mm both along the line and normal to the line. The Bragg-Brentano geometry is a para-focusing geometry controlled by passive divergence and receiving slits with the sample itself acting as the focusing component for the optics. The inherent resolution of Bragg-Brentano geometry is governed in part by the diffractometer radius and the width of the receiving slit used. Typically, the Rigaku Smart-Lab is operated to give peak widths of 0.1°2θ or less. The axial divergence of the X-ray beam is controlled by 5.0-degree Soller slits in both the incident and diffracted beam paths. Powder samples were prepared in a low background Si holder using light manual pressure to keep the sample surfaces flat and level with the reference surface of the sample holder. The single-crystal, Si, low-background holder has a small circular recess (7 mm diameter and about 1 mm depth) that holds between 5 and 10 mg of powdered material. Each sample was analyzed from 2 to 40°2θ using a continuous scan of 3°2θ per minute with an effective step size of 0.02°2θ. Form III was generated at 138° C. from Form I in a variable temperature XRD (VT XRD) experiment. […] Form III is characterized by the X-ray powder diffraction pattern in FIG. 9, and the differential scanning calorimetry plot in FIG. 11 showing endotherms at about 181 and 271° C. (decomposition). Form IV was generated between 95 and 110° C. from Form II in a variable temperature XRD experiment. […] is characterized by the X-ray powder diffraction pattern in FIG. 13.

The nature of data set [2]: Competition slurry experiment of Form I and Form III in methanol. It counts as physicochemical. Particulars: 10 mg of each of Form I and Form III in methanol.
For a further data set, the system named is HCV. Particulars: once daily 7-day treatment, HCV infected patients; cited from earlier work.

Take `CCCCOc1nc(N)c2c(n1)N(Cc1cccc(CN3CCCC3)c1)CC(=O)N2` [Form III, 4-amino-2-butoxy-8-(3-(pyrrolidin-1-ylmethyl)benzyl)-7,8-dihydropteridin-6(5H)-one]: the “Solid form stability when cooled to 25° C. in variable temperature XRD” value is “stable when cooled to 25 °C and does not convert back to Form I” in data set [1]; “remains as Form III” in data set [1] (listed as Compound I Form III). In addition, in data set [2], the “Time for conversion of Form III back to Form I in competition slurry” value was no more than 2 weeks. For the molecule `CCCCOc1nc(N)c2c(n1)N(Cc1cccc(CN3CCCC3)c1)CC(=O)N2` [Form IV, 4-amino-2-butoxy-8-(3-(pyrrolidin-1-ylmethyl)benzyl)-7,8-dihydropteridin-6(5H)-one], in data set [1], the “Solid form stability when cooled to 25° C. in variable temperature XRD” value is “converts back to Form II when cooled to 25 °C”. Regarding `Nc1nc(=O)c2sc(=O)n([C@@H]3O[C@H](CO)[C@@H](O)[C@H]3O)c2[nH]1` [isatoribine], in the data set with HCV, the Plasma virus concentrations entry is given as “reduces plasma virus concentrations”.
